Assay results: ChEMBL document CHEMBL4316591, “Optimization of Pan-Pim Kinase Activity and Oral Bioavailability Leading to Diaminopyrazole (GDC-0339) for the Treatment of Multiple Myeloma” (J Med Chem, 2019)
Values after ≈ are worked out from the molar mass of the structure shown.

Legend:
in vivo [1] = conditions: Sprague-Dawley, rat, iv, 1 mg/kg
physchem = conditions: buffer, pH 6.5
in vivo [2] = conditions: Sprague-Dawley, rat, po, 5 mg/kg
[3] = Volume of distribution at steady state in Sprague-Dawley rat at 1 mg/kg, iv by LC-MS/MS analysis; assay type: ADME, organism-based; conditions: in vivo, read-out: Vdss
[4] = Oral bioavailability in mouse at 100 mg/kg by LC-MS/MS analysis; assay type: ADME, organism-based; conditions: in vivo
[5] = Total clearance in cynomolgus monkey at 0.5 mg/kg, iv by LC-MS/MS analysis; assay type: ADME, organism-based, Macaca fascicularis; conditions: in vivo
[6] = Oral bioavailability in Sprague-Dawley rat at 100 mg/kg by LC-MS/MS analysis; assay type: ADME, organism-based; conditions: in vivo
[7] = Total clearance in mouse at 1 mg/kg, iv by LC-MS/MS analysis; assay type: ADME, organism-based; conditions: in vivo
[8] = Oral bioavailability in cynomolgus monkey at 100 mg/kg by LC-MS/MS analysis; assay type: ADME, organism-based, Macaca fascicularis; conditions: in vivo
[9] = Oral bioavailability in mouse at 5 mg/kg by LC-MS/MS analysis by LC-MS/MS analysis; assay type: ADME, organism-based; conditions: in vivo
[10] = Half life in cynomolgus monkey at 0.5 mg/kg by LC-MS/MS analysis; conditions: in vivo
[11] = Volume of distribution at steady state in mouse at 1 mg/kg, iv by LC-MS/MS analysis; assay type: ADME, organism-based; conditions: in vivo, read-out: Vdss
[12] = Half life in mouse at 1 mg/kg, iv by LC-MS/MS analysis; assay type: ADME, organism-based; conditions: in vivo
[13] = Volume of distribution at steady state in cynomolgus monkey at 0.5 mg/kg by LC-MS/MS analysis; conditions: in vivo, read-out: Vdss
[14] = Half life in Sprague-Dawley rat at 1 mg/kg, iv by LC-MS/MS analysis; assay type: ADME, organism-based; conditions: in vivo
[15] = Oral bioavailability in cynomolgus monkey at 1 mg/kg by LC-MS/MS analysis; assay type: ADME, organism-based, Macaca fascicularis; conditions: in vivo

clearance (in vivo [1])	solubility thermodynamic (physchem)	bioavailability (in vivo [2])	Compound	further results
2 mL/min/kg	62 µM (≈ 29.6 µg/mL)	3%	CO[C@H]1C[C@H](N)CCN(c2c(NC(=O)c3nc(-c4c(F)cccc4F)sc3N)cnn2C)C1	
	1 µM (≈ 0.53 µg/mL)		Cn1ncc(NC(=O)c2nc(-c3c(F)cccc3F)sc2N)c1N1CCC[C@H](NCC(F)(F)F)CC1	
7 mL/min/kg	< 1 µM	38%	Cn1ncc(NC(=O)c2nc(-c3c(F)cccc3F)sc2N)c1N1CCCC(O)CC1 (stereo not drawn)	
8 mL/min/kg	67 µM (≈ 31.2 µg/mL)	33%	Cn1ncc(NC(=O)c2nc(-c3c(F)cccc3F)sc2N)c1N1CC[C@@H](N)[C@H](F)CC1	Vd [3]: 0.9 L/kg; bioavailability [4]: 34%; clearance [5]: 34 mL/min/kg; bioavailability [6]: 28%; clearance [7]: 135 mL/min/kg; bioavailability [8]: 60%; bioavailability [9]: 11%; half-life [10]: 1.8 h; Vd [11]: 6.8 L/kg; half-life [12]: 0.9 h; Vd [13]: 5 L/kg; half-life [14]: 1.8 h; bioavailability [15]: 35%
	88 µM (≈ 40.9 µg/mL)		Cn1ncc(NC(=O)c2nc(-c3c(F)cccc3F)sc2N)c1C1CCC(N)C(F)CC1 (stereo not drawn)	
3 mL/min/kg	16 µM (≈ 7.37 µg/mL)	24%	Cn1ncc(NC(=O)c2nc(-c3c(F)cccc3F)sc2N)c1[C@@]12CC[C@@H](N)[C@@H](CC1)O2	

Compound	clearance (in vivo [1])	solubility thermodynamic (physchem)	bioavailability (in vivo [2])	further results
Cn1ncc(NC(=O)c2nc(-c3c(F)cccc3F)sc2N)c1N1CCC[C@H](NCC(F)F)CC1		1 µM (≈ 0.512 µg/mL)		
